Values joined by “and” are separate entries in the source; they are usually repeats but may differ in a detail not shown here. Equal values may be shown once. Read-outs that look alike come from different tables or passages of the source.
Tests used:
[1] = biological target: T1, GHS-R1a (Homo sapiens, UniProt Q92847); assay: Radioligand binding assay, displacement of [125I-His9]ghrelin(1-28); conditions: for IC50: GHS-R1a transfected HEK293 cells, [125I-His9]ghrelin(1-28) radioligand, determined in applicant's lab; for binding affinity with GHS-R1a, stated in words: radioligand binding assay
T1 construct: expressed in transfected cells; host or cells: HEK293
T1 sequence (Q92847 whole entry): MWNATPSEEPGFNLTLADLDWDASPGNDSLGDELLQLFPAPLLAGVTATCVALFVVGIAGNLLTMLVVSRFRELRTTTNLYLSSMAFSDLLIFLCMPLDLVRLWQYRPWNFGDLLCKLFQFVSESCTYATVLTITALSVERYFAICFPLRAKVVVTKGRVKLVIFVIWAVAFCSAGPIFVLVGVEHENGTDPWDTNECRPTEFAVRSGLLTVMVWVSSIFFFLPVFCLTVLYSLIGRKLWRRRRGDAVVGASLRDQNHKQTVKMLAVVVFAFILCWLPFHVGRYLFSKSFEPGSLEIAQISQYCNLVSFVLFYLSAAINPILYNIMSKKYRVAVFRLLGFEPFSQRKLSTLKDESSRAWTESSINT
Description: The affinity for GHS-R1a was determined using a radioligand binding assay. […] The resulting suspension was incubated for 20 min with shaking (550 rpm). […] All binding assays were performed in triplicate.

[2] = biological target: T1, GHS-R1a; conditions: cited from earlier work; for Ki: literature value, read-out: Ki values reported in the literature

IC50 [1]	SMILES	also measured
935 nM	O=c1c2cc(Oc3ccc(F)cn3)ccc2nc(-c2ccccc2F)n1C[C@H]1CCCNC1 [Compound 9a, (S)-2-(2-fluorophenyl)-6-((5-fluoropyridin-2-yl)oxy)-3-(piperidin-3-ylmethyl)quinazolin-4(3H)-one]	
16 nM	O=c1c2cc(Oc3ccc4ncsc4c3)ccc2nc(-c2ccccc2F)n1C[C@H]1CCCNC1 [Compound 9b, (S)-6-(benzo[d]thiazol-6-yloxy)-2-(2-fluorophenyl)-3-(piperidin-3-ylmethyl)quinazolin-4(3H)-one]	
70.5 nM	CC(C)N1CCC[C@H](Cn2c(-c3ccccc3F)nc3ccc(Oc4ccc(F)cn4)cc3c2=O)C1 [Compound 10a, (S)-2-(2-fluorophenyl)-6-((5-fluoropyridin-2-yl)oxy)-3-((1-isopropylpiperidin-3-yl)methyl)quinazolin-4(3H)-one]	
0.02 nM	CC(C)N1CCC[C@H](Cn2c(-c3ccccc3F)nc3ccc(Oc4ccc5ncsc5c4)cc3c2=O)C1 [Compound 10b, (S)-6-(benzo[d]thiazol-6-yloxy)-2-(2-fluorophenyl)-3-((1-isopropylpiperidin-3-yl)methyl)quinazolin-4(3H)-one]	binding affinity with GHS-R1a, stated in words [1]: sub-nanomolar binding affinity
8.1 nM	O=c1c2cc(Oc3ccc4ncsc4c3)ccc2nc(-c2ccccc2F)n1C[C@H]1CCCN(CCF)C1 [Compound 10c, (S)-6-(benzo[d]thiazol-6-yloxy)-3-((1-(2-fluoroethyl)piperidin-3-yl)methyl)-2-(2-fluorophenyl)quinazolin-4(3H)-one]	
353 nM	O=c1c2cc(Oc3ccc(F)cn3)ccc2nc(-c2ccc(OCCO)cc2F)n1C[C@H]1CCCNC1 [Compound 14a, (S)-2-(2-fluoro-4-(2-hydroxyethoxy)phenyl)-6-((5-fluoropyridin-2-yl)oxy)-3-(piperidin-3-ylmethyl)quinazolin-4(3H)-one]	
19.8 nM	O=c1c2cc(Oc3ccc(F)cc3)ccc2nc(-c2ccc(OCCO)cc2F)n1C[C@H]1CCCNC1 [Compound 14b, (S)-2-(2-fluoro-4-(2-hydroxyethoxy)phenyl)-6-(4-fluorophenoxy)-3-(piperidin-3-ylmethyl)quinazolin-4(3H)-one]	
40.1 nM	CC(C)N1CCC[C@H](Cn2c(-c3ccc(OCCO)cc3F)nc3ccc(Oc4ccc(F)cn4)cc3c2=O)C1 [Compound 15a, (S)-2-(2-fluoro-4-(2-hydroxyethoxy)phenyl)-6-((5-fluoropyridin-2-yl)oxy)-3-((1-isopropylpiperidin-3-yl)methyl)quinazolin-4(3H)-one]	
2.3 nM	CC(C)N1CCC[C@H](Cn2c(-c3ccc(OCCO)cc3F)nc3ccc(Oc4ccc(F)cc4)cc3c2=O)C1 [Compound 15b, (S)-2-(2-fluoro-4-(2-hydroxyethoxy)phenyl)-6-(4-fluorophenoxy)-3-((1-isopropylpiperidin-3-yl)methyl)quinazolin-4(3H)-one]	binding affinity with GHS-R1a, stated in words [1]: equivalent binding affinity to natural ghrelin
17.6 nM	CC(C)N1CCC[C@H](Cn2c(-c3ccc(OCCF)cc3F)nc3ccc(Oc4ccc(F)cn4)cc3c2=O)C1 [Compound 17a, (S)-2-(2-fluoro-4-(2-fluoroethoxy)phenyl)-6-((5-fluoropyridin-2-yl)oxy)-3-((1-isopropylpiperidin-3-yl)methyl)quinazolin-4(3H)-one]	
0.33 nM	CC(C)N1CCC[C@H](Cn2c(-c3ccc(OCCF)cc3F)nc3ccc(Oc4ccc(F)cc4)cc3c2=O)C1 [Compound 17b, (S)-2-(2-fluoro-4-(2-fluoroethoxy)phenyl)-6-(4-fluorophenoxy)-3-((1-isopropylpiperidin-3-yl)methyl)quinazolin-4(3H)-one]	binding affinity with GHS-R1a, stated in words [1]: sub-nanomolar binding affinity

Further lines, the compound ahead of its results:

SMILES	IC50 [1]	also measured
Cc1ccccc1-c1nc2ccc(Oc3ccc(F)cc3)cc2c(=O)n1C[C@H]1CCCNC1 [Compound 4a, (S)-6-(4-fluorophenoxy)-3-(piperidin-3-ylmethyl)-2-(o-tolyl)quinazolin-4(3H)-one, reference compound]	5.6 nM	Ki [2]: 0.9 nM
Cc1ccccc1-c1nc2ccc(Oc3ccc(F)cn3)cc2c(=O)n1C[C@H]1CCCNC1 [Compound 4b, (S)-6-((5-fluoropyridin-2-yl)oxy)-3-(piperidin-3-ylmethyl)-2-(o-tolyl)quinazolin-4(3H)-one]	52 nM	
Cc1ccccc1-c1nc2ccc(Oc3ccc(F)nc3)cc2c(=O)n1C[C@H]1CCCNC1 [Compound 4c, (S)-6-((6-fluoropyridin-3-yl)oxy)-3-(piperidin-3-ylmethyl)-2-(o-tolyl)quinazolin-4(3H)-one]	68.5 nM	
Cc1ccccc1-c1nc2ccc(Oc3ccc(Oc4ccc(F)cn4)nc3)cc2c(=O)n1C[C@H]1CCCNC1 [Compound 4d, (S)-6-((6-((5-fluoropyridin-2-yl)oxy)pyridin-3-yl)oxy)-3-(piperidin-3-ylmethyl)-2-(o-tolyl)quinazolin-4(3H)-one]	82.9 nM	
Cc1ccccc1-c1nc2ccc(Oc3ccc4ncsc4c3)cc2c(=O)n1C[C@H]1CCCNC1 [Compound 4e, (S)-6-(benzo[d]thiazol-6-yloxy)-3-(piperidin-3-ylmethyl)-2-(o-tolyl)quinazolin-4(3H)-one]	5.3 nM	
CC(=O)N1CCN(c2ccc(Oc3ccc4nc(-c5ccccc5C)n(C[C@H]5CCCNC5)c(=O)c4c3)cc2)CC1 [Compound 4f, (S)-6-(4-(4-acetylpiperazin-1-yl)phenoxy)-3-(piperidin-3-ylmethyl)-2-(o-tolyl)quinazolin-4(3H)-one]	587 nM	
Cc1ccccc1-c1nc2ccc(Oc3ccc(F)cc3)cc2c(=O)n1C[C@H]1CCCN(CCF)C1 [Compound 5a, (S)-3-((1-(2-fluoroethyl)piperidin-3-yl)methyl)-6-(4-fluorophenoxy)-2-(o-tolyl)quinazolin-4(3H)-one]	29.5 nM	
Cc1ccccc1-c1nc2ccc(Oc3ccc(F)cn3)cc2c(=O)n1C[C@H]1CCCN(CCF)C1 [Compound 5b, (S)-3-((1-(2-fluoroethyl)piperidin-3-yl)methyl)-6-((5-fluoropyridin-2-yl)oxy)-2-(o-tolyl)quinazolin-4(3H)-one]	20.6 nM	
Cc1ccccc1-c1nc2ccc(Oc3ccc(F)nc3)cc2c(=O)n1C[C@H]1CCCN(CCF)C1 [Compound 5c, (S)-3-((1-(2-fluoroethyl)piperidin-3-yl)methyl)-6-((6-fluoropyridin-3-yl)oxy)-2-(o-tolyl)quinazolin-4(3H)-one]	64.2 nM and 62.4 nM	
Cc1ccccc1-c1nc2ccc(Oc3ccc(Oc4ccc(F)cn4)nc3)cc2c(=O)n1C[C@H]1CCCN(CCO)C1 [Compound 5d, (S)-6-((6-((5-fluoropyridin-2-yl)oxy)pyridin-3-yl)oxy)-3-((1-(2-hydroxyethyl)piperidin-3-yl)methyl)-2-(o-tolyl)quinazolin-4(3H)-one]	65.2 nM	
Cc1ccccc1-c1nc2ccc(Oc3ccc4ncsc4c3)cc2c(=O)n1C[C@H]1CCCN(CCF)C1 [Compound 5e, (S)-6-(benzo[d]thiazol-6-yloxy)-3-((1-(2-fluoroethyl)piperidin-3-yl)methyl)-2-(o-tolyl)quinazolin-4(3H)-one]	9.3 nM	
Cc1ccccc1-c1nc2ccc(Oc3ccc(F)cc3)cc2c(=O)n1C[C@H]1CCCN(C(C)C)C1 [Compound 5f, (S)-6-(4-fluorophenoxy)-3-((1-isopropylpiperidin-3-yl)methyl)-2-(o-tolyl)quinazolin-4(3H)-one, reference compound]	3.7 nM	binding affinity with GHS-R1a, stated in words [1]: equivalent binding affinity with natural ghrelin; IC50 ([2]; literature value (Bayer work), read-out: IC50 reported for prior art compound): 0.9 nM; Ki [2]: 0.9 nM
Cc1ccccc1-c1nc2ccc(Oc3ccc4ncsc4c3)cc2c(=O)n1C[C@H]1CCCN(C(C)C)C1 [Compound 5g, (S)-6-(benzo[d]thiazol-6-yloxy)-3-((1-isopropylpiperidin-3-yl)methyl)-2-(o-tolyl)quinazolin-4(3H)-one]	1.8 nM	binding affinity with GHS-R1a, stated in words [1]: equivalent binding affinity to natural ghrelin
Cc1ccccc1-c1nc2ccc(Oc3ccc4ncsc4c3)cc2c(=O)n1C[C@H]1CCCN(CCO)C1 [Compound 5i, (S)-6-(benzo[d]thiazol-6-yloxy)-3-((1-(2-hydroxyethyl)piperidin-3-yl)methyl)-2-(o-tolyl)quinazolin-4(3H)-one]	0.4 nM	binding affinity with GHS-R1a, stated in words [1]: sub-nanomolar binding affinity
Cc1ccccc1-c1nc2ccc(Oc3ccc(F)cn3)cc2c(=O)n1C[C@H]1CCCN(C(=O)C(C)F)C1 (stereo partly drawn) [Compound 5j, 3-(((3S)-1-(2-fluoropropanoyl)piperidin-3-yl)methyl)-6-((5-fluoropyridin-2-yl)oxy)-2-(o-tolyl)quinazolin-4(3H)-one]	> 1000 nM	
Cc1ccccc1-c1nc2ccc(C(=O)c3ccc(F)cc3)cc2c(=O)n1C[C@H]1CCCNC1 [Compound 19, (S)-6-(4-fluorobenzoyl)-3-(piperidin-3-ylmethyl)-2-(o-tolyl)quinazolin-4(3H)-one]	4 nM	
Cc1ccccc1-c1nc2ccc(C(=O)c3ccc(F)cc3)cc2c(=O)n1C[C@H]1CCCN(C(C)C)C1 [Compound 20, (S)-6-(4-fluorobenzoyl)-3-((1-isopropylpiperidin-3-yl)methyl)-2-(o-tolyl)quinazolin-4(3H)-one]	3.8 nM	binding affinity with GHS-R1a, stated in words [1]: equivalent binding affinity to natural ghrelin

— patent US11186571B2, “Quinazolinone derivatives useful for imaging” (LONDON HEALTH SCIENCES CENTRE RESEARCH INC., priority 2017, dated 2021)
